Source: paper PMC10895676, “Antiviral Activity of Lipophilic Nucleoside Tetraphosphate Compounds” (Journal of Medicinal Chemistry, 2024)
Read-outs that look alike come from different tables or passages of the source.

Experiments:
[1] = Chemical hydrolysis in aqueous buffers (PBS pH 7.3 / 8.0, citrate buffer pH 2.0), RP18-HPLC; assay type: physicochemical; conditions: for half-life at 1.9 mM: phosphate buffered saline
Protocol: All metabolite mixtures were analyzed and quantified by means of analytical RP18-HPLC (UV detection).
The solution was incubated at 37 °C in a thermomixer. […] for each extraction and stored at −30 °C. When testing, samples were warmed up to room temperature, and 25 or 20 μL of the liquid was taken and injected into the analytical RP-18-HPLC instrument. Further aliquots were taken for monitoring the kinetic hydrolysis.
5.88 g of citric acid and 3.58 g of NaCl were dissolved in 82 mL of hydrochloric acid (0.1 mol/L). Then, sodium hydroxide was added to adjust the pH to 2.0.

[2] = Hydrolysis in CEM/0 cell extracts; assay type: in vitro ADME; conditions: human, 37 °C, read-out: CEM/0 cell extracts t1/2 (converted)
Protocol: Next, TetraPPPPro-nucleotides 4–9 were incubated in human CD4^+ T-lymphocyte CEM/0 cell extracts to study their stability and identify the hydrolysis products.
CEM cells were grown in RPMI-1640-based cell culture medium to a final density of ∼3 × 10^6 cells/mL. Cells were centrifuged for 10 min at 1250 rpm at 4 °C and washed twice with cold PBS, and the pellet was resuspended at 10^8 cells/mL and sonicated (Hielscher Ultrasound Techn., 100% amplitude, 3·times for 10 s) to destroy cell integrity. Next, the resulting cell suspension was centrifuged at 10,000 rpm to remove cell debris. Finally, the supernatant was divided into aliquots and frozen at −80 °C.
(§1) 6.0 mM hydrolysis solutions of compounds 4–9 were prepared from 21 μL of 50 mM DMSO stock solutions and 154 μL of DMSO. Two different samples, including 10 μL of water and 10 μL of 6.0 mM hydrolysis solution, were prepared in 2 mL Eppendorf vials. Next, 50 μL of human CEM cell extracts or 50 μL of human citrate plasma were added to the mixture, the reaction was started, and the mixture was incubated at 37 °C for different time periods. The reactions were stopped by the addition of 150 μL of MeOH. The resulting suspension was kept on ice for 5 min, followed by defrosting and centrifugation at 14,000 rpm (Heraeus, Biofuge Pico) for 22 min. The supernatants (80 or 60 μL) were directly injected into HPLC. The calculation of t1/2 was performed analogously to that for the chemical hydrolysis studies.

pig liver esterase (PLE) [3] = experiment: Enzymatic hydrolysis with pig liver esterase (PLE); assay type: in vitro ADME; conditions: pig liver esterase in phosphate buffer, PLE in phosphate buffer pH 7.3, 37 °C, read-out: PLE t1/2 (converted)
Protocol: To confirm the enzymatic hydrolysis process, TetraPPPPro-nucleotides 4–9 bearing different kinds of lipophilic groups attached to the δ-phosph(on)ate group were incubated with PLE in phosphate buffer.
Then, 833 μL of 50 mM phosphate buffer (pH 7.3) and 125 μL of DMSO were added to the 6.0 mM hydrolysis solutions. The reaction was started by addition of 62.5 μL of PLE in phosphate buffer (100 units/mL), and the mixture was incubated at 800 rpm at 37 °C in a thermomixer. (1). At different times, aliquots (75 μL) were taken and stopped by the addition of […] of MeOH. The mixture was stored in liquid nitrogen. When testing, samples were warmed up to room temperature, and 60 μL of the liquid was directly injected into HPLC analysis. (2). 40 μL for each extraction was stored in liquid nitrogen. When testing, samples were warmed up to room temperature, and 30 μL of the liquid was taken and injected into the analytical RP-18-HPLC instrument. The calculation of t1/2 was performed analogously to that for the chemical hydrolysis studies.

[4] = Hydrolysis in citrate-stabilized human plasma; assay type: in vitro ADME; conditions: 37 °C, read-out: t1/2 in citrate-stabilized human plasma (converted)
Protocol: Finally, the supernatant was divided into aliquots and frozen at −80 °C.
as §1, with “Two” for “6.0 mM hydrolysis solutions of compounds 4–9 were prepared from 21 μL of 50 mM DMSO stock solutions and 154 μL of DMSO. Two”

HIV-1 (HE) [5] = experiment: Anti-HIV replication assay, HIV-1 (HE) in wild-type CEM/0 cells; assay type: cell-based; conditions: Human immunodeficiency virus 1, CCRF-CEM; wild-type CEM/0 cells; mean ± SD, n = 2–3; read-out: HIV-1 (HE) EC50
Protocol: (§2) Inhibition of HIV-1(HE)- and HIV-2(ROD)-induced cytopathogenicity in wild-type CEM/0 CEM CD4^+ T-cells and thymidine kinase-deficient CEM/TK^– cell cultures was measured in microtiter 96-well plates containing ∼3 × 10^5 CEM cells/mL infected with 100 CCID50 of HIV per milliliter and containing appropriate dilutions of the test compounds. After 4–5 days of incubation at 37 °C in a CO2-controlled humidified atmosphere, virus-induced cellular effects and syncytia cell formation were examined microscopically. The EC50 (50% effective concentration) was defined as the compound concentration required to inhibit HIV-induced giant cell formation by 50%.

HIV-2 (ROD) [6] = experiment: Anti-HIV replication assay, HIV-2 (ROD) in wild-type CEM/0 cells; assay type: cell-based; conditions: for selectivity index (SI): CC50/EC50, HIV-2 (ROD) in CEM cells; for EC50: Human immunodeficiency virus 2, CCRF-CEM, wild-type CEM/0 cells, mean ± SD, n = 2–3, read-out: HIV-2 (ROD) EC50
Protocol: as §2, with “microscopically.” for “microscopically. The EC50 (50% effective concentration) was defined as the compound concentration required to inhibit HIV-induced giant cell formation by 50%.”

HIV-2 (ROD) [7] = experiment: Anti-HIV replication assay, HIV-2 (ROD) in thymidine kinase-deficient CEM/TK– cells; assay type: cell-based; conditions: for selectivity index (SI): CC50/EC50, HIV-2 (ROD) in CEM/TK– cells; for EC50: Human immunodeficiency virus 2, CEM/TK– cells, mean ± SD, n = 2–3, read-out: CEM/TK– HIV-2 (ROD) EC50
Protocol: as §2, with “microscopically.” for “microscopically. The EC50 (50% effective concentration) was defined as the compound concentration required to inhibit HIV-induced giant cell formation by 50%.”

[8] = Cytotoxicity, inhibition of CEM cell proliferation; assay type: cell-based; conditions: human, CEM cells (CD4+ T-cells), read-out: toxicity CC50
[9] = Cytotoxicity, inhibition of CEM/TK– cell proliferation; assay type: cell-based; conditions: human, CEM/TK– cells (CD4+ T-cells), read-out: toxicity CC50
CD4+ T-cell (CEM) = conditions: CEM cell proliferation; read-out: toxicity CC50; cited from earlier work
HIV-1 (HE) [10] = conditions: CEM/0 cells; cited from earlier work
[11] = PBS; cited from earlier work
pig liver esterase (PLE) [12] = system: pig liver esterase (PLE); design: method as in PMID 26503889; conditions: cited from earlier work
[13] = 25 mM PBS, pH 7.3, 37 °C, read-out: PBS pH 7.3 t1/2 (converted)
[14] = PBS, pH 8.0, 37 °C, read-out: PBS pH 8.0 t1/2 (converted)

Row | SMILES | half-life at 1.9 mM [1, 13] [h] | half-life at 0.86 mM [2] [h] | half-life at 0.45 mM (pig liver esterase (PLE) [3]) [h] | half-life at 0.86 mM [4] [h] | EC50 (HIV-1 (HE) [5]) [µM] | EC50 (HIV-2 (ROD) [6]) [µM] | EC50 (HIV-2 (ROD) [7]) [µM] | half-life ([1]; 25 mM citrate buffer, pH 2.0, 37 °C) [h] | half-life at 1.9 mM [1, 14] [h] | selectivity index (SI) (HIV-2 (ROD) [6]) | selectivity index (SI) (HIV-2 (ROD) [7]) | CC50 [8] [µM] | CC50 [9] [µM] | CC50 (CD4+ T-cell (CEM)) [µM] | EC50 (HIV-1 (HE) [10]) [µM] | PBS pH 7.3 t1/2 [11] | PLE t1/2 (pig liver esterase (PLE) [12])
1 | CCCCCCCCCCCCCCCCCCOP(=O)(OCCCC)OP(=O)(O)OP(=O)(O)OC[C@@H]1C=C[C@H](n2cc(C)c(=O)[nH]c2=O)O1 (stereo partly shown) [3a, γ-(alkyl-C4; alkyl-C18)-d4TTP] |  |  |  |  |  |  |  |  |  |  |  |  |  | 30 |  |  | 
2 | CCCCCCCCCCCCCCCCCCP(=O)(OCc1ccc(OC(=O)CCCC)cc1)OP(=O)(O)OP(=O)(O)OC[C@@H]1C=C[C@H](n2cc(C)c(=O)[nH]c2=O)O1 (stereo partly shown) [2b, γ-(AB-C4)-γ-C-(C18)-d4TTP] |  |  |  |  |  |  |  |  |  |  |  |  |  | 19 | 0.0074 ± 0.0014 | 646 h | 
3 | CCCCCCCCCCCCCCCCCCP(=O)(OCCCC)OP(=O)(O)OP(=O)(O)OC[C@@H]1C=C[C@H](n2cc(C)c(=O)[nH]c2=O)O1 (stereo partly shown) [3b, γ-(alkyl-C4)-γ-C-(alkyl-C18)-d4TTP] |  |  |  |  |  |  |  |  |  |  |  |  |  | 33 |  | > 1700 h | 

The next lines start with results.

Row | half-life at 1.9 mM [1, 13] [h] | half-life at 0.86 mM [2] [h] | half-life at 0.45 mM (pig liver esterase (PLE) [3]) [h] | half-life at 0.86 mM [4] [h] | EC50 (HIV-1 (HE) [5]) [µM] | EC50 (HIV-2 (ROD) [6]) [µM] | EC50 (HIV-2 (ROD) [7]) [µM] | half-life ([1]; 25 mM citrate buffer, pH 2.0, 37 °C) [h] | half-life at 1.9 mM [1, 14] [h] | SMILES | selectivity index (SI) (HIV-2 (ROD) [6]) | selectivity index (SI) (HIV-2 (ROD) [7]) | CC50 [8] [µM] | CC50 [9] [µM] | CC50 (CD4+ T-cell (CEM)) [µM] | EC50 (HIV-1 (HE) [10]) [µM] | PBS pH 7.3 t1/2 [11] | PLE t1/2 (pig liver esterase (PLE) [12])
4 | 26 | 1.37 | 0.07 | 2.8 | 0.39 ± 0.16 | 0.26 ± 0.14 | 4.44 ± 1.54 |  |  | CCCCCCCCCC(=O)Oc1ccc(COP(=O)(OCc2ccc(OC(=O)CCCCCCCCC)cc2)OP(=O)(O)OP(=O)(O)OP(=O)(O)OC[C@@H]2C=C[C@H](n3cc(C)c(=O)[nH]c3=O)O2)cc1 [compound 8, δ-(AB-C9; AB-C9)-d4T4P] | 173 | 11 | 45 | 50 |  |  |  | 
5 | 77 | 6.67 | 1.06 | 2.1 | 0.083 ± 0.018 | 0.063 ± 0.032 | 0.059 ± 0.054 | 27 | 99 | CCCCCCCCCCCCCCCCCCOP(=O)(OCc1ccc(OC(=O)CCCC)cc1)OP(=O)(O)OP(=O)(O)OP(=O)(O)OC[C@@H]1C=C[C@H](n2cc(C)c(=O)[nH]c2=O)O1 (stereo partly shown) [compound 6, δ-(AB-C4; alkyl-C18)-d4T4P] | 643 | 813 | 40.5 | 48 |  |  |  | 
6 |  |  |  |  | 0.042 ± 0.02 | 0.066 ± 0.026 | 0.29 ± 0.19 |  | 68 | CCCCCCCCCC(=O)Oc1ccc(COP(=O)(OCc2ccc(OC(=O)CCCCCCCCC)cc2)OP(=O)(O)OP(=O)(O)OC[C@@H]2C=C[C@H](n3cc(C)c(=O)[nH]c3=O)O2)cc1 [1a, γ-(AB-C9; AB-C9)-d4TTP, reference compound] | 1109 | 172 | 73.2 | 50 |  |  | 44[43] h | 0.082[43] h
